Experimental findings from patent publication US9346795B2, “Substituted sulfonamides useful as antiapoptotic Bcl inhibitors” (Bristol-Myers Squibb Company, priority 2011, dated 2016) are described below.

For one assay, the target named is Bcl-xL (Homo sapiens (Human), UniProt Q07817). Nature of the assay: Bcl-xL/Bim Fluorescence Resonance Energy Transfer Assay (FRET). The assay is classed as binding. As to the method:
Bcl-xL/Bim Fluorescence Resonance Energy Transfer Assay (FRET) The assays were performed in black flat-bottom 384-well plates. The final assay volume was 55 μl prepared from additions of Biotin-Bcl-xL (Bcl-xL: GENBANK® Accession No. […] The reaction was incubated at room temperature for 60 minutes. After 60 minutes, 5 μL of Streptavidin-Terbium FRET detection reagent (Perkin Elmer) was added to the reaction mixture and incubated at room temperature in the dark for 30 mins. […] Compounds were dissolved at 10 mM in dimethylsulfoxide (DMSO) and evaluated at eleven concentrations. IC50 values were derived by non-linear regression analysis.

The target of the next assay is Bcl-2 (Homo sapiens (Human), UniProt P10415). Nature of the assay: Bcl-2/Bim Fluorescence Polarization Assay (FPA). In kind it is binding. As to the method: Bcl-2/Bim Fluorescence Polarization Assay (FPA)
The assays were performed in black flat-bottom 384-well plates. […] The reaction was incubated at room temperature for 60 minutes and fluorescence polarization of the reaction was detected on the LJL Plate Reader. Inhibition data were calculated from mP values generated by the no protein control reactions for 100% inhibition and vehicle-only reactions for 0% inhibition. The final concentrations of reagents in the assay were 4.9 nM BCL-2, 5 nM fluoresceinated 18-mer BIM peptide and 1% DMSO. […] Compounds were dissolved at 10 mM in dimethylsulfoxide (DMSO) and evaluated at eleven concentrations. IC50 values were derived by non-linear regression analysis.

For orientation: IC50 means the point on the concentration scale where inhibition reaches its midpoint. Read a low IC50 as greater potency in that assay.

Chain of Bcl-xL (Q07817 whole entry): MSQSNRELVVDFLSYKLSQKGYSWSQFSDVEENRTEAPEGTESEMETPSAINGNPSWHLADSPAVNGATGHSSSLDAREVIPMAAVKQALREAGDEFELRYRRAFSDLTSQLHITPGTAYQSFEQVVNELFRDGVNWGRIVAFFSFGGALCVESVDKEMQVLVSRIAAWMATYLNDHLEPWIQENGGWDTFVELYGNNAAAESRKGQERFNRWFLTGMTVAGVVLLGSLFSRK
Chain of Bcl-2 (P10415 whole entry): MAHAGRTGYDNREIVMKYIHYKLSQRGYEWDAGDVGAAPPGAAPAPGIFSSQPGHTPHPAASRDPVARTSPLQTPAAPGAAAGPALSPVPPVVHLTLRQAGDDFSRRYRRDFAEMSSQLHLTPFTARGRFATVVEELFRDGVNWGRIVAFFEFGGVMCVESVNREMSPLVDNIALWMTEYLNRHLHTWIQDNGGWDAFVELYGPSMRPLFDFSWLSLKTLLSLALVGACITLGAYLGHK

As for `CCCCN(CCCC)C(=O)c1nn(-c2ccc(C(=O)NS(=O)(=O)c3ccc4ccccc4c3)cc2C(=O)N2Cc3ccccc3C[C@H]2CN)c(C)c1Cl` [Example 92, 1-(2-((S)-3-(Aminomethyl)-1,2,3,4-tetrahydroisoquinoline-2-carbonyl)-4-(naphthalen-2-ylsulfonylcarbamoyl)phenyl)-N,N-dibutyl-4-chloro-5-methyl-1H-pyrazole-3-carboxamide], the IC50 at Bcl-xL was found to be 0.01 µM; against Bcl-2, 0.00841 µM.
For `CCCCN(CCCC)C(=O)c1nn(-c2ccc(C(=O)NS(=O)(=O)c3ccc4c(c3)CCN4C(=O)Cc3ccc(Cl)c(Cl)c3)cc2C(=O)N2CCc3ccccc3C2)c(C)c1Cl` [Example 64, N,N-dibutyl-4-chloro-1-(4-(1-(2-(3,4-dichlorophenyl)acetyl)indolin-5-ylsulfonylcarbamoyl)-2-(1,2,3,4-tetrahydroisoquinoline-2-carbonyl)phenyl)-5-methyl-1H-pyrazole-3-carboxamide], the IC50 was found to be 2.45 µM on Bcl-xL and 0.2 µM at Bcl-2.
Take `CCCCN(CCCC)C(=O)c1nn(-c2ccc(C(=O)NS(=O)(=O)c3ccc4c(c3)CCN4C(=O)N3CCOCC3)cc2C(=O)N2CCc3ccccc3C2)c(C)c1Cl` [Example 74, N,N-dibutyl-4-chloro-5-methyl-1-(4-(1-(morpholine-4-carbonyl)indolin-5-ylsulfonylcarbamoyl)-2-(1,2,3,4-tetrahydroisoquinoline-2-carbonyl)phenyl)-1H-pyrazole-3-carboxamide]: the IC50 came to 0.06 µM against Bcl-xL and 0.34 µM against Bcl-2.
With `CCCCN(CCCC)C(=O)c1nn(-c2ccc(C(=O)NS(=O)(=O)c3ccc4ccc(OCCCN5CCN(C)CC5)cc4c3)cc2C(=O)N2CCc3ccccc3C2)c(C)c1Cl` [Example 35, N,N-dibutyl-4-chloro-5-methyl-1-(4-(7-(3-(4-methylpiperazin-1-yl)propoxy)naphthalen-2-ylsulfonylcarbamoyl)-2-(1,2,3,4-tetrahydroisoquinoline-2-carbonyl)phenyl)-1H-pyrazole-3-carboxamide], the results for the IC50 against Bcl-xL and on Bcl-2 were 0.04 µM and 0.51 µM, respectively.
Consider `CCCCN(CCCC)C(=O)c1cn(CC(=O)NC)c(-c2ccc(C(=O)NS(=O)(=O)c3ccc4ccccc4c3)cc2C(=O)N2CCc3ccccc3C2)n1` [Example 265, N,N-Dibutyl-1-(2-(methylamino)-2-oxoethyl)-2-(4-(naphthalen-2-ylsulfonylcarbamoyl)-2-(1,2,3,4-tetrahydroisoquinoline-2-carbonyl)phenyl)-1H-imidazole-4-carboxamide], for which the values for the IC50 against Bcl-xL and at Bcl-2 were 0.07 µM and 0.43 µM, respectively.
`CCCCN(CCCC)C(=O)c1nn(-c2ccc(C(=O)NS(=O)(=O)c3ccc4ccc(OC(C)CN(C)C)cc4c3)cc2C(=O)N2CCc3ccccc3C2)c(C)c1Cl` (stereo not drawn) [Example 37, N,N-dibutyl-4-chloro-1-(4-(7-(1-(dimethylamino)propan-2-yloxy)naphthalen-2-ylsulfonylcarbamoyl)-2-(1,2,3,4-tetrahydroisoquinoline-2-carbonyl)phenyl)-5-methyl-1H-pyrazole-3-carboxamide]: the IC50 on Bcl-xL is 0.01 µM; against Bcl-2 it was 0.49 µM.
As to `CCCCN(CCCC)C(=O)c1nn(-c2ccc(C(=O)NS(=O)(=O)c3ccc4c(ccn4CCCN4CCOCC4)c3)cc2C(=O)N2CCc3ccccc3C2)c(C)c1Cl` [Example 82, N,N-dibutyl-4-chloro-5-methyl-1-(4-(1-(3-morpholinopropyl)-1H-indol-5-ylsulfonylcarbamoyl)-2-(1,2,3,4-tetrahydroisoquinoline-2-carbonyl)phenyl)-1H-pyrazole-3-carboxamide], the IC50 at Bcl-xL worked out at 0.03 µM; against Bcl-2, 0.39 µM.
Consider `CCCCN(CCCC)C(=O)c1nn(-c2ccc(C(=O)NS(=O)(=O)c3ccc4ccc(OCCCN(C)C)cc4c3)cc2C(=O)N2CCc3ccccc3C2)c(C)c1Cl` [Example 39, N,N-dibutyl-4-chloro-1-(4-(7-(3-(dimethylamino)propoxy)-naphthalen-2-ylsulfonylcarbamoyl)-2-(1,2,3,4-tetrahydroisoquinoline-2-carbonyl)phenyl)-5-methyl-1H-pyrazole-3-carboxamide], for which the IC50 at Bcl-xL came to 0.02 µM; on Bcl-2 it was 1.46 µM.
`CCCCc1c(-c2ccc(C(=O)NS(=O)(=O)c3ccc4ccccc4c3)cc2C(=O)N2CCc3ccccc3C2)c(CO)nn1-c1ccc(Oc2ccccc2)cc1` [Example 241, 4-(5-butyl-3-(hydroxymethyl)-1-(4-phenoxyphenyl)-1H-pyrazol-4-yl)-N-(naphthalen-2-ylsulfonyl)-3-(1,2,3,4-tetrahydroisoquinoline-2-carbonyl)benzamide]: the IC50 was 0.03 µM against Bcl-xL and 0.13 µM on Bcl-2.
In the case of `CCCCN(CCCC)C(=O)c1cn(C)c(-c2ccc(C(=O)NS(=O)(=O)c3ccc4cccc(I)c4c3)cc2C(=O)N2Cc3ccccc3C[C@H]2CN)n1` [Example 282, 2-(2-((S)-3-(Aminomethyl)-1,2,3,4-tetrahydroisoquinoline-2-carbonyl)-4-(8-iodonaphthalen-2-ylsulfonylcarbamoyl)phenyl)-N,N-dibutyl-1-methyl-1H-imidazole-4-carboxamide], the IC50 at Bcl-xL was determined as 0.01 µM; at Bcl-2, 0.00697 µM.
In the case of `CCCCN(CCCC)c1ccc(Br)c(-c2ccc(C(=O)NS(=O)(=O)c3ccc4cccc(Cl)c4c3)cc2C(=O)N2CCc3ccccc3C2)n1` [Example 289, 4-(3-Bromo-6-(dibutylamino)pyridin-2-yl)-N-(8-chloronaphthalen-2-ylsulfonyl)-3-(1,2,3,4-tetrahydroisoquinoline-2-carbonyl)benzamide], the IC50 against Bcl-xL was found to be 0.06 µM; against Bcl-2, 0.01 µM.
With `CCCCN(C(=O)c1nn(-c2ccc(C(=O)NS(=O)(=O)c3ccc4c(Cl)ccc(Br)c4c3)cc2C(=O)N2CCc3ccccc3C2)c(C)c1Cl)c1cccc(-c2ccc(Cl)cc2)c1` [Example 217, 1-(4-(8-bromo-5-chloronaphthalen-2-ylsulfonylcarbamoyl)-2-(1,2,3,4-tetrahydroisoquinoline-2-carbonyl)phenyl)-N-butyl-4-chloro-N-(4′-chlorobiphenyl-3-yl)-5-methyl-1H-pyrazole-3-carboxamide], the IC50 came to 0.07 µM at Bcl-xL and 0.01 µM at Bcl-2.
On the same counts, the results for `CCCCN(CCCC)C(=O)c1cc(C)n(-c2ccc(C(=O)NS(=O)(=O)c3ccc4ccccc4c3)cc2C(=O)N2CCc3ccccc3C2)n1` [Example 164, N,N-Dibutyl-5-methyl-1-(4-(naphthalen-2-ylsulfonylcarbamoyl)-2-(1,2,3,4-tetrahydroisoquinoline-2-carbonyl)phenyl)-1H-pyrazole-3-carboxamide] are 0.03 µM and 0.23 µM.
In the case of `CCCCN(CCCC)C(=O)c1nn(-c2ccc(C(=O)NS(=O)(=O)c3ccc4c(ccn4Cc4ccc(Cl)c(Cl)c4)c3)cc2C(=O)N2CCc3ccccc3C2)c(C)c1Cl` [Example 68, N,N-dibutyl-4-chloro-1-(4-(1-(3,4-dichlorobenzyl)-1H-indol-5-ylsulfonylcarbamoyl)-2-(1,2,3,4-tetrahydroisoquinoline-2-carbonyl)phenyl)-5-methyl-1H-pyrazole-3-carboxamide], the IC50 was found to be 0.11 µM against Bcl-xL and 0.05 µM on Bcl-2.
Regarding `CCCCc1c(-c2ccc(C(=O)NS(=O)(=O)c3ccc4ccccc4c3)cc2C(=O)N2CCc3ccccc3C2)c(CO)nn1-c1ccc(Oc2ccc(Cl)cc2)cc1` [Example 242, 4-(5-butyl-1-(4-(4-chlorophenoxy)phenyl)-3-(hydroxymethyl)-1H-pyrazol-4-yl)-N-(naphthalen-2-ylsulfonyl)-3-(1,2,3,4-tetrahydroisoquinoline-2-carbonyl)benzamide], the IC50 turned out to be 0.04 µM on Bcl-xL and 0.02 µM at Bcl-2.
With `CCCCN(CCCC)C(=O)c1nn(-c2ccc(C(=O)NS(=O)(=O)c3cc(Br)c4c(ccn4CC)c3)cc2C(=O)N2Cc3ccccc3C[C@H]2CO)c(C)c1Cl` [Example 208, 1-(4-(7-bromo-1-ethyl-1H-indol-5-ylsulfonylcarbamoyl)-2-((S)-3-(hydroxymethyl)-1,2,3,4-tetrahydroisoquinoline-2-carbonyl)phenyl)-N,N-dibutyl-4-chloro-5-methyl-1H-pyrazole-3-carboxamide], the IC50 is 0.00788 µM against Bcl-xL and 0.00359 µM against Bcl-2.
For the compound `CCCCN(CCCC)C(=O)c1nn(-c2ccc(C(=O)NS(=O)(=O)c3ccc4cccc(Cl)c4c3)cc2C(=O)N2CCc3ccccc3C2)c(C)c1Cl` [Example 5, N,N-dibutyl-4-chloro-1-(4-(8-chloronaphthalen-2-ylsulfonylcarbamoyl)-2-(1,2,3,4-tetrahydroisoquinoline-2-carbonyl)phenyl)-5-methyl-1H-pyrazole-3-carboxamide], the IC50 against Bcl-xL is 0.07 µM; on Bcl-2, 0.03 µM.
Consider `CCCN(CCC)c1ncc(Cl)c(-c2ccc(C(=O)NS(=O)(=O)c3ccc4cccc(Cl)c4c3)cc2C(=O)N2Cc3ccccc3C[C@H]2CN)n1` [Example 329, 3-((S)-3-(Aminomethyl)-1,2,3,4-tetrahydroisoquinoline-2-carbonyl)-4-(5-chloro-2-(dipropylamino)pyrimidin-4-yl)-N-(8-chloronaphthalen-2-ylsulfonyl)benzamide], for which the IC50 on Bcl-xL was determined as 0.02 µM; at Bcl-2, 0.00509 µM.
